From US20250025550A1, “ADJUVANT COMPOUNDS AND FORMULATIONS” (ADJUVANCE TECHNOLOGIES, INC., priority 2021, published 2025)

Assays:
CD-i mice = assay: TQL-1055 HP-β-CD dose ranging study: weight loss and survival; conditions: for Deaths (D 7) / Deaths (D 21): CD-1 mice, I.M.; for Deaths (D 7): post dose 1; for Deaths (D 21): post dose 2 (day 14)
[1] = system: mouse strains (C57BL/6J, BALB/cJ, CD-i); assay: Tolerability (mortality) of soluble TQL-1055 formulations across three mouse strains; format: in vivo
Description: The tolerability of soluble TQL-1055 formulations, including TQL-1055 FA (free acid) HP-β-CD and TQL-1055 ISKS (in situ potassium salt) HP-β-CD formulations, administered over a range of doses was examined across three mouse strains (C57BL/6J, BALB/cJ, CD-i). The following experimental groups were used. I.M. administration was performed.
The mortality rate 7 days after injection was observed.
A Logrank (Mantel-Cox) test was performed to assess survival distributions of the foregoing groups.

[2] = system: cancer patients; well (non-cancer) adult and child recipients; conditions: cited from earlier work
[3] = no antigen, HPβCD dose equivalent to group 4
[4] = with 0.1 μg PR8 HA, HPβCD dose equivalent to group 4

## 2-hydroxypropyl beta-cyclodextrin [HPβCD alone]
CD-i mice; [3]
  Deaths (D 7): 0/10
  Deaths (D 21): 0/10
CD-i mice; [4]
  Deaths (D 7): 0/10
  Deaths (D 21): 0/10
CD-i mice; mice, TQL-1055 without HP-β-CD, or HP-β-CD without TQL-1055, any dose tested
  Mortality (follow-on studies, text): did not result in mortality

## CC1O[C@@H](OC2C(O)[C@@H](NC(=O)CCCCCCCCCCC(=O)O)C(CO)O[C@H]2OC(=O)[C@]23CCC(C)(C)CC2C2=CCC4C5(C)CC[C@H](O)[C@](C)(C=O)[C@@H]5CC[C@]4(C)[C@]2(C)CC3O)C(O)C(O)[C@H]1O[C@@H]1OC[C@@H](O)C(O)C1O (stereo partly drawn) [TQL1055 FA]
CD-i mice; no antigen, 50 μg
  Deaths (D 7): 0/10
  Deaths (D 21): 0/10
CD-i mice; no antigen, 100 μg
  Deaths (D 7): 0/10
  Deaths (D 21): 0/10
CD-i mice; no antigen, 200 μg
  Deaths (D 7): 0/10
  Deaths (D 21): 0/10
CD-i mice; with 0.1 μg PR8 HA, 50 μg
  Deaths (D 7): 0/10
  Deaths (D 21): 0/10
CD-i mice; with 0.1 μg PR8 HA, 100 μg
  Deaths (D 7): 0/10
  Deaths (D 21): 0/10
CD-i mice; with 0.1 μg PR8 HA, 198.68 μg
  Deaths (D 7): 0/10
  Deaths (D 21): 0/10

## QS-21
[1]; BALB/cJ mice, 20 μg I.M., 7 days after injection
  Deaths: 0/10
[1]; BALB/cJ mice, 40 μg I.M., 7 days after injection
  Deaths: 0/10
[1]; BALB/cJ mice, 60 μg I.M., 7 days after injection
  Deaths: 0/10
[1]; BALB/cJ mice, 80 μg I.M., 7 days after injection
  Deaths: 0/10
[1]; BALB/cJ mice, 100 μg I.M., 7 days after injection
  Deaths: 0/10
[1]; C57BL/6J mice, 20 μg I.M., 7 days after injection
  Deaths: 0/10
[1]; C57BL/6J mice, 40 μg I.M., 7 days after injection
  Deaths: 2/10
[1]; C57BL/6J mice, 60 μg I.M., 7 days after injection
  Deaths: 0/10
[1]; C57BL/6J mice, 80 μg I.M., 7 days after injection
  Deaths: 5/10
[1]; C57BL/6J mice, 100 μg I.M., 7 days after injection
  Deaths: 10/10
[1]; C57BL/6J, BALB/cJ, CD-1 compared
  Role of mouse strain in tolerability: C57BL/6 mice appear to be more sensitive
[1]; CD-1 mice, 20 μg I.M., 7 days after injection
  Deaths: 0/10
[1]; CD-1 mice, 40 μg I.M., 7 days after injection
  Deaths: 0/10
[1]; CD-1 mice, 60 μg I.M., 7 days after injection
  Deaths: 0/10
[1]; CD-1 mice, 80 μg I.M., 7 days after injection
  Deaths: 0/10
[1]; CD-1 mice, 100 μg I.M., 7 days after injection
  Deaths: 0/10
[1]; all three mouse strains, 20-100 μg I.M., 7 days after injection
  Mortality: at least some mice in the other groups (including QS-21) died
[2]; cancer patients, above it significant local and systemic side effects arise
  tolerated dose: 100 to 150 µg
[2]; well (non-cancer) adult and child recipients
  highest practical tolerable dose: 25 to 50 µg
CD-i mice; with 0.1 μg PR8 HA, 25 μg
  Deaths (D 7): 0/10
  Deaths (D 21): 0/10
CD-i mice; with 0.1 μg PR8 HA, 50 μg
  Deaths (D 7): 0/10
  Deaths (D 21): 0/10
CD-i mice; with 0.1 μg PR8 HA, 100 μg
  Deaths (D 7): 2/10
  Deaths (D 21): 0/8
